Type in all cases: in vivo
For one test, the system named is Chilo suppressalis. The experiment in a line: Insecticidal activity against Chilo suppressalis (spray on rice seedlings, stems fed to larvae). The method, then: (§1) The compound to be tested was dissolved by a mixed solvent of acetone/methanol (1:1), and then diluted by water containing 0.1% (wt) Tween 80 to the required concentration.
(§2) An Airbrush spray method was adopted for the determination of the activity, with armyworm, Plutella xylostella and Chilo suppressalis as targets.
Determination method: 1) preparation of rice seedlings: rice was cultivated in small plastic cups (diameter: 4.5 cm and height: 4 cm) at a constant temperature room (temperature: 26-28° C., relative humidity: 60-80% around and illumination: 16 hL:8 hD), after the rice grew to a 4-5 leaf stage, vigorous and uniform-growth rice seedlings were selected and treated with an insecticide, 3 repeats for each treatment. 2) Preparation of pests for test: 3rd-instar larvaes of Chilo suppressalis fed continuously in the room. 3) Inoculation of pests on rice stems by spray. The whole plants of the rice seedlings were sprayed by a spray method uniformly, with the dose of 15 ml for each treatment. The blank control was treated first, and the above operation was repeated in an order of lower to higher test concentration. After sprayed, rice seedlings were placed in the shade to dry the insecticide liquor, and then stalks about 5 cm above the basal part of the stems were cut to be fed to the pests for test. Glass petri dishes (diameter: […]) were prepared, cushioned by filter paper at the bottom thereof, and subjected to water addition for moisturizing; about 20 pieces of rice stems were put in each dish and inoculated with 10 larvaes; then the petri dishes were closed by non-woven fabrics and placed in a constant temperature room for culture. The number of survivals was surveyed 3 d after administration.

In a further test the test system is armyworm. The experiment in a line: Insecticidal activity against armyworm (Airbrush spray on maize blade segments). The conditions noted are these: 72 h, read-out: fatality rate against armyworm. The method, then:
as §1, §2
Determination method: maize blades were cut into 2 cm (length) segments; with the pressure of Airbrush spray being 10 psi (about 0.7 kg/cm^2), both sides of each blade segment were sprayed with the amount of 0.5 ml. After dried in the shade, each segment was inoculated with 10 3rd-instar larvaes, 3 repeats for each segment. And then, the treated segments were put into an observation room (25° C., relative humidity: 60-70%) for cultivation; the number of the survivals was surveyed 1 d, 2 d and 3 d after administration, and then the death rate was calculated.

The next test concerns Plutella xylostella. The experiment in a line: Insecticidal activity against Plutella xylostella (Airbrush spray on cabbage leaf discs). The protocol: as §1, §2
Determination method: cabbage blades were punched into 2 cm (diameter) leaf discs by a puncher; with the pressure of Airbrush spray being 10 psi (about 0.7 kg/cm^2), both sides of each leaf disc were sprayed with the amount of 0.5 ml. After dried in the shade, each leaf disc was inoculated with 10 3rd-instar larvaes, 3 repeats for each leaf disc. And then, the treated leaf discs were put into an observation room (25° C., relative humidity: 60-70%) for cultivation; the number of the survivals was surveyed 1 d, 2 d and 3 d after administration, and then the death rate was calculated.

[1] abbreviates: Chilo suppressalis, 72 h, 4 mg/L, survivals surveyed 3 d after administration, read-out: fatality rate against Chilo suppressalis.
Where [2] appears, read: Chilo suppressalis, 72 h, 40 mg/L, survivals surveyed 3 d after administration, read-out: fatality rate against Chilo suppressalis.
[3] abbreviates: 0.1 mg/L, 3 d after administration, 3rd-instar larvae.
Where [4] appears, read: 0.5 mg/L, 3 d after administration, 3rd-instar larvae.
Setting [5] is: Plutella xylostella, foliar, 72 h, 1 mg/L, 3 d after administration, read-out: fatality rate against Plutella xylostella.
Where [6] appears, read: Plutella xylostella, foliar, 72 h, Table 71, 10 mg/L, 3 d after administration, read-out: Fatality rate (%, 3 d after administration) 10 mg/L.
Setting [7] is: Chilo suppressalis, 72 h, read-out: fatality rate against Chilo suppressalis.
Where [8] appears, read: Plutella xylostella, foliar, 72 h, read-out: Fatality rate (%, 3 d after administration) 0.5 mg/L, Table 73, 0.5 mg/L, 3 d after administration.
The mark [9] stands for this setting: Plutella xylostella, foliar, 72 h, read-out: Fatality rate (%, 3 d after administration) 1 mg/L, Table 73, 1 mg/L, 3 d after administration.
Where [10] appears, read: Plutella xylostella, foliar, 72 h, read-out: Fatality rate (%, 3 d after administration) 10 mg/L, Table 71, 10 mg/L, 3 d after administration.
The mark [11] stands for this setting: Plutella xylostella, foliar, 72 h, read-out: fatality rate against Plutella xylostella, 0.5 mg/L, 3 d after administration.
[12] abbreviates: Plutella xylostella, foliar, 72 h, read-out: fatality rate against Plutella xylostella, 1 mg/L, 3 d after administration.

Read-outs that look alike come from different tables or passages of the source.

With `N#CCN(C(=O)c1cccc(NC(=O)c2ccccc2)c1F)c1c(Cl)cc(C(F)(C(F)(F)F)C(F)(F)F)cc1Cl` [Compound 17.321], the pest or weed control at 4 µg/mL with Chilo suppressalis (setting [1]) was no less than 90%. Further, the pest or weed control at 40 µg/mL with Chilo suppressalis (setting [2]) was no less than 90%. In addition, the pest or weed control at 0.1 µg/mL in the test on armyworm (setting [3]) is no less than 90%. In addition, the pest or weed control at 0.5 µg/mL in the test with armyworm (setting [4]) was no less than 90%. Besides, in the test on Plutella xylostella (setting [5]), the pest or weed control at 1 µg/mL is no less than 90%. In the test on Plutella xylostella (setting [6]), the pest or weed control at 10 µg/mL was determined as 100%.

In the case of `Cc1cc(C(F)(C(F)(F)F)C(F)(F)F)cc(Br)c1N(CC#N)C(=O)c1cccc(NC(=O)c2ccccc2)c1F` [Compound 20.321], the pest or weed control at 40 µg/mL in the test with Chilo suppressalis (setting [2]) was no less than 90%. The pest or weed control at 0.5 µg/mL in the test with armyworm (setting [4]) was no less than 90%. For the same compound, the pest or weed control at 1 µg/mL in the test with Plutella xylostella (setting [5]) is no less than 90%; in the test with Plutella xylostella (Plutella xylostella, foliar, 72 h, Table 72, 1 mg/L, 3 d after administration, read-out: Fatality rate (%, 3 d after administration) 1 mg/L), 93.9%. Further, in the test on Plutella xylostella (setting [6]), the pest or weed control at 10 µg/mL was determined as 100%. For the same compound, the “Fatality rate (%, 3 d after administration) 5 mg/L” value with Plutella xylostella (Table 72, 5 mg/L, 3 d after administration) stood at 100%.

Consider `N#CCN(C(=O)c1cccc(NC(=O)c2ccccc2)c1F)c1c(Cl)cc(C(F)(C(F)(F)F)C(F)(F)F)cc1Br` [Compound 21.321], for which, in the test on Chilo suppressalis (setting [1]), the pest or weed control at 4 µg/mL was no less than 90%. For the same compound, in the test on Chilo suppressalis (setting [2]), the pest or weed control at 40 µg/mL was no less than 90%. Also, in the test with armyworm (setting [3]), the pest or weed control at 0.1 µg/mL is no less than 90%. Further, the pest or weed control at 0.5 µg/mL in the test with armyworm (setting [4]) was no less than 90%. Further, in the test on Plutella xylostella (setting [5]), the pest or weed control at 1 µg/mL was no less than 90%. Moreover, in the test with Plutella xylostella (setting [6]), the pest or weed control at 10 µg/mL stood at 100%.

As to `CN(C(=O)c1ccccc1)c1cccc(C(=O)N(CC#N)c2c(Br)cc(C(F)(C(F)(F)F)C(F)(F)F)cc2Br)c1F` [Compound 30.321], the figures for the pest or weed control at 1 µg/mL with Chilo suppressalis (setting [7]), in the test with Plutella xylostella (setting [9]) and in the test on Plutella xylostella (setting [12]) were no less than 90%, 100% and no less than 90%, respectively. In addition, the pest or weed control at 4 µg/mL in the test with Chilo suppressalis (setting [7]) is no less than 90%. For the same compound, the pest or weed control at 40 µg/mL with Chilo suppressalis (setting [7]) is no less than 90%. For the same compound, the “Fatality rate (%, 3 d after administration) 1.25 mg/L” value with Chilo suppressalis (Table 77, 1.25 mg/L, 3 d after administration) stood at 93.5%. In the test on Chilo suppressalis (Table 77, 2.5 mg/L, 3 d after administration), the “Fatality rate (%, 3 d after administration) 2.5 mg/L” value is 100%. Besides, the “Fatality rate (%, 3 d after administration) 5 mg/L” value in the test on Chilo suppressalis (Table 77, 5 mg/L, 3 d after administration) is given as 100%. The pest or weed control at 0.05 µg/mL was no less than 90% in the test with armyworm and no less than 90% with Plutella xylostella (Plutella xylostella, foliar, 72 h, read-out: fatality rate against Plutella xylostella, 0.05 mg/L, 3 d after administration). Also, the pest or weed control at 0.1 µg/mL in the test on armyworm is no less than 90%. Also, the pest or weed control at 0.5 µg/mL with armyworm was no less than 90%; with Plutella xylostella (setting [8]), 100%; in the test with Plutella xylostella (Plutella xylostella, foliar, 72 h, read-out: Fatality rate (%, 3 d after administration) 0.5 mg/L, Table 74, 0.5 mg/L, 3 d after administration), 100%; in the test on Plutella xylostella (setting [11]), no less than 90%. The pest or weed control at 10 µg/mL with Plutella xylostella (setting [10]) was 100%. The “Fatality rate (%, 3 d after administration) 0.05 mg/L” value in the test with Plutella xylostella (Table 74, 0.05 mg/L, 3 d after administration) worked out at 100%. Also, in the test on Plutella xylostella (Table 75, fast-acting efficacy, dose 0.5 mg/L, 1 d after administration), the “Fatality rate (%) 1 d after administration” value was 90%. Also, the “Fatality rate (%) 2 d after administration” value in the test with Plutella xylostella (Table 75, fast-acting efficacy, dose 0.5 mg/L, 2 d after administration) is 100%. For the same compound, the “Fatality rate (%) 3 d after administration” value with Plutella xylostella (Table 75, fast-acting efficacy, dose 0.5 mg/L, 3 d after administration) stood at 100%.

In the case of `N#CCN(C(=O)c1ccccc1)c1cccc(C(=O)N(CC#N)c2c(Br)cc(C(F)(C(F)(F)F)C(F)(F)F)cc2Br)c1F` [Compound 58.321], the pest or weed control at 4 µg/mL with Chilo suppressalis (setting [7]) is no less than 90%. Also, the pest or weed control at 40 µg/mL in the test on Chilo suppressalis (setting [7]) is no less than 90%. Further, the pest or weed control at 0.1 µg/mL in the test with armyworm is no less than 90%. Also, the pest or weed control at 0.5 µg/mL was no less than 90% with armyworm, 98% in the test with Plutella xylostella (setting [8]) and no less than 90% with Plutella xylostella (setting [11]). Further, the figures for the pest or weed control at 1 µg/mL with Plutella xylostella (setting [9]) and in the test on Plutella xylostella (setting [12]) were 100% and no less than 90%, respectively. Further, in the test with Plutella xylostella (setting [10]), the pest or weed control at 10 µg/mL came out at 100%.

Source of the values: US11407711B2, “Benzamide compound and use thereof” (METISA BIOTECHNOLOGY CO., LTD., priority 2018, dated 2022).
